The values that follow come from US4525589A, “Isoquinolinesulfonyl derivatives” (Asahi Kasei Kogyo Kabushiki Kaisha, priority 1981, dated 1985).

The first assay has as its system mesenteric artery. As to the kind of experiment: Relaxation of mesenteric artery (helical strips contracted with KCl, organ bath). The arrangement: species or system rabbit (home bred, Japanese species). The note with it: Oryctolagus cuniculus, read-out: Relaxation of Mesenteric Artery ED50. How it is done:
After a home bred rabbit of a Japanese species weighing about 3 Kg was subjected to bloodletting, resulting in death and then to abdominal incision, the mesenteric artery was taken out, cut into helicoids of 2 mm×25 mm and suspended in a 20 ml organ bath filled with a Krebs-Henseleit solution into which a mixed gas of 95% by volume of O2 and 5% by volume of CO2 was introduced and one end of the artery was connected with an isometric transducer. When a load of 1.5 g was applied to the artery, the contraction and the relaxation of the artery were recorded as a weight on the transducer (a product of Nippon Koden K.K., Japan, "FD Pickup TB-912T"). The relaxation of the mesenteric artery was observed by adding the isoquinolinesulfonyl derivatives and their pharmaceutically acceptable acid addition salts of this invention to the mesenteric artery at the condition of about one half of the maximum contraction with KCl at a KCl concentration of 15~20 mM. When the complete relaxation of the mesenteric artery was designated 100%, the concentration of the isoquinolinesulfonyl derivatives and their pharmaceutically acceptable acid addition salts which brought about a relaxation of 50% is shown in Table 12.
As to `CC1CNCCN1S(=O)(=O)c1cccc2cnccc12` (stereo not shown) [Compound (38), 1-(5-isoquinolinesulfonyl)-2-methylpiperazine], the EC50 worked out at 5 µM.

The same assay, now with this note: Oryctolagus cuniculus; concentration for 50% relaxation; KCl 15~20 mM contraction; read-out: Relaxation of Mesenteric Artery ED50.
Turning to `NCCCNS(=O)(=O)c1cccc2cnccc12` [Compound (2), N-(3-aminopropyl)-5-isoquinolinesulfonamide], the EC50 came to 7 µM.
The same measure, in the same setting: the same measure for `NCCCCNS(=O)(=O)c1cccc2cnccc12` [Compound (3), N-(4-aminobutyl)-5-isoquinolinesulfonamide]: 11 µM; for `NCCCCCCNS(=O)(=O)c1cccc2cnccc12` [Compound (4), N-(6-aminohexyl)-5-isoquinolinesulfonamide]: 10 µM; for `NCCCCCCCCCCNS(=O)(=O)c1cccc2cnccc12` [Compound (5), N-(10-aminodecyl)-5-isoquinolinesulfonamide]: 14 µM.
Take `CC(CN)NS(=O)(=O)c1cccc2cnccc12` (stereo not shown) [Compound (6), N-(2-amino-1-methylethyl)-5-isoquinolinesulfonamide]: the EC50 was found to be 10 µM.
Same read-out and setting: the same measure for `CCC(CN)NS(=O)(=O)c1cccc2cnccc12` (stereo not shown) [Compound (7), N-(1-aminomethylpropyl)-5-isoquinolinesulfonamide]: 21 µM; for `CCCCC(CN)NS(=O)(=O)c1cccc2cnccc12` (stereo not shown) [Compound (8), N-(1-aminomethylpentyl)-5-isoquinolinesulfonamide]: 19 µM; for `CC(N)CNS(=O)(=O)c1cccc2cnccc12` (stereo not shown) [Compound (9), N-(2-aminopropyl)-5-isoquinolinesulfonamide]: 15 µM.
On the same count and under the same terms, as for `CC(C)C(N)CNS(=O)(=O)c1cccc2cnccc12` (stereo not shown) [Compound (11), N-(2-amino-3-methylbutyl)-5-isoquinolinesulfonamide], the figure is 28 µM; as for `NCC(NS(=O)(=O)c1cccc2cnccc12)c1ccccc1` (stereo not shown) [Compound (12), N-(2-amino-1-phenylethyl)-5-isoquinolinesulfonamide], 18 µM; as for `NC(CNS(=O)(=O)c1cccc2cnccc12)c1ccccc1` (stereo not shown) [Compound (13), N-(2-amino-2-phenylethyl)-5-isoquinolinesulfonamide], 25 µM.
Still for that read-out and setting: as for `CNCCNS(=O)(=O)c1cccc2cnccc12` [Compound (14), N-(2-methylaminoethyl)-5-isoquinolinesulfonamide], the figure is 12 µM; as for `CC(C)NCCNS(=O)(=O)c1cccc2cnccc12` [Compound (16), N-(2-isopropylaminoethyl)-5-isoquinolinesulfonamide], 10 µM; as for `CN(C)CCCNS(=O)(=O)c1cccc2cnccc12` [Compound (17), N-(3-dimethylaminopropyl)-5-isoquinolinesulfonamide], 10 µM.
As for `CCN(CC)CCCNS(=O)(=O)c1cccc2cnccc12` [Compound (18), N-(3-diethylaminopropyl)-5-isoquinolinesulfonamide], the EC50 worked out at 30 µM.
For the compound `CCCCN(CCCC)CCCNS(=O)(=O)c1cccc2cnccc12` [Compound (19), N-(3-di-n-butylaminopropyl)-5-isoquinolinesulfonamide], the EC50 was determined as 17 µM.
With `O=S(=O)(NCCCN1CCCCC1)c1cccc2cnccc12` [Compound (20), N-(3-piperidinopropyl)-5-isoquinolinesulfonamide], the EC50 is 42 µM.
Same read-out and setting: as for `O=S(=O)(NCCCN1CCOCC1)c1cccc2cnccc12` [Compound (21), N-(3-morpholinopropyl)-5-isoquinolinesulfonamide], the figure is 50 µM; as for `CN(CCCNS(=O)(=O)c1cccc2cnccc12)C1CCCCC1` [Compound (22), N-[3-(N-methyl-N-cyclohexylamino)propyl]-5-isoquinolinesulfonamide], 42 µM.
The same measure, in the same setting: as for `CN(CCCNS(=O)(=O)c1cccc2cnccc12)c1ccccc1` [Compound (23), N-[3-(N-methyl-N-phenylamino)propyl]-5-isoquinolinesulfonamide], the figure is 4 µM; as for `CN(CCCNS(=O)(=O)c1cccc2cnccc12)Cc1ccccc1` [Compound (24), N-[3-(N-methyl-N-benzylamino)propyl]-5-isoquinolinesulfonamide], 17 µM; as for `CNS(=O)(=O)c1cccc2cnccc12` [Compound (25), N-methyl-5-isoquinolinesulfonamide], 13 µM.
On the same count and under the same terms, the same measure for `CCNS(=O)(=O)c1cccc2cnccc12` [Compound (26), N-ethyl-5-isoquinolinesulfonamide]: 8.8 µM; for `CCCCNS(=O)(=O)c1cccc2cnccc12` [Compound (27), N-n-Butyl-5-isoquinolinesulfonamide]: 21 µM; for `CC(C)CNS(=O)(=O)c1cccc2cnccc12` [Compound (28), N-isobutyl-5-isoquinolinesulfonamide]: 19 µM.
Regarding `CN(C)S(=O)(=O)c1cccc2cnccc12` [Compound (29), N,N-dimethyl-5-isoquinolinesulfonamide], the EC50 turned out to be 13 µM.
As for `CCN(CC)S(=O)(=O)c1cccc2cnccc12` [Compound (30), N,N-diethyl-5-isoquinolinesulfonamide], the EC50 came out at 8.9 µM.
Still for that read-out and setting: as for `CCCCN(CCCC)S(=O)(=O)c1cccc2cnccc12` [Compound (31), N,N-di-n-butyl-5-isoquinolinesulfonamide], the figure is 28 µM; as for `O=S(=O)(c1cccc2cnccc12)N1CCCCC1` [Compound (32), 1-(5-isoquinolinesulfonyl)piperidine], 16 µM.
On the same count and under the same terms, the same measure for `O=S(=O)(c1cccc2cnccc12)N1CCCC1` [Compound (33), 1-(5-isoquinolinesulfonyl)pyrrolidine]: 11 µM; for `O=S(=O)(c1cccc2cnccc12)N1CCOCC1` [Compound (34), 1-(5-isoquinolinesulfonyl)morpholine]: 10 µM; for `CN1CCN(S(=O)(=O)c2cccc3cnccc23)CC1` [Compound (36), 1-(5-isoquinolinesulfonyl)-4-methylpiperazine]: 7.7 µM.
Take `CC1CN(S(=O)(=O)c2cccc3cnccc23)CCN1` (stereo not shown) [Compound (37), 1-(5-isoquinolinesulfonyl)-3-methylpiperazine]: the EC50 stood at 4 µM.
The same measure, in the same setting: the same measure for `CC1CN(S(=O)(=O)c2cccc3cnccc23)CC(C)N1` (stereo not shown) [Compound (39), 1-(5-isoquinolinesulfonyl)-3,5-dimethylpiperazine]: 9.5 µM; for `CC1CN(S(=O)(=O)c2cccc3cnccc23)C(C)CN1` (stereo not shown) [Compound (40), 1-(5-isoquinolinesulfonyl)-2,5-dimethylpiperazine]: 0.6 µM.
On the same count and under the same terms, as for `CC1NCCN(S(=O)(=O)c2cccc3cnccc23)C1C` (stereo not shown) [Compound (41), 1-(5-isoquinolinesulfonyl)-2,3-dimethylpiperazine], the figure is 1.5 µM; as for `CCN1CCN(S(=O)(=O)c2cccc3cnccc23)CC1` [Compound (42), 1-(5-isoquinolinesulfonyl)-4-ethylpiperazine], 18 µM; as for `CCC1CN(S(=O)(=O)c2cccc3cnccc23)CCN1` (stereo not shown) [Compound (43), 1-(5-isoquinolinesulfonyl)-3-ethylpiperazine], 6.1 µM.
On the same count and under the same terms, the same measure for `CCCN1CCN(S(=O)(=O)c2cccc3cnccc23)CC1` [Compound (44), 1-(5-isoquinolinesulfonyl)-4-n-propylpiperazine]: 8.6 µM.
